Converted amounts (≈) assume the structure as drawn. Like-named read-outs stand apart in the source and are kept apart here.
Tests used:
[1] = tested on: E. Coli ATCC 25922; test: Minimum Inhibitory Concentration (MIC), modified microbroth dilution; assay type: cell-based; conditions: for MIC50: Escherichia coli, read-out: MIC50 E. coli
[2] = tested on: Staphylococcus aureus ATCC 27660; test: as above; assay type: cell-based; conditions: for MIC50: Staphylococcus aureus, read-out: MIC50 S. aureus
[3] = tested on: Pseudomonas aeruginosa ATCC 10145; test: as above; assay type: cell-based; conditions: for MIC50: Pseudomonas aeruginosa, read-out: MIC50 P. Aeruginosa
[4] = tested on: Enterococcus faecalis ATCC 29212; test: as above; assay type: cell-based; conditions: for MIC50: Enterococcus faecalis, read-out: MIC50 E. faecalis
[5] = Cytotoxicity colorimetric (tetrazolium) assay; assay type: cell-based, human; conditions: human, HepG2 cells (HB-8065), HepG2 cells; one hour with compound in serum-free media
Description: (§1) Cytotoxicity of the compounds was evaluated in a colorimetric assay using a transformed human liver cell line (HepG2, HB-8065) and an embryonic mouse cell line (NIH/3T3 cells, CRL-1658). This assay measures the bioreduction of a novel tetrazolium compound to a soluble formazan product by viable cells. HepG2 cells were seeded in 96 well plates at 2×10^4 cells/well in MEM medium with 10% fetal bovine serum (FBS) 24 hours prior to use. NIH/3T3 cells were seeded in 96 well plates at 2×10^4 cells/well in DMEM medium with 10% bovine calf serum (BCS) 24 hours prior to use. Cell monolayers were rinsed in serum-free media and incubated for one hour with compounds in serum-free media. After incubation, the media is replaced with serum supplemented media and live cells were measured using the Cell Titer 96 Aqueous […] Assay kit (Promega, Madison, Wis.). EC50 values were determined using a four parameter logistic equation: Y=Bottom+(Top-Bottom)/(1+10̂((LogEC50−X)*HillSlope)).
(§2) Actual results from a representative cytotoxicity assay are shown below in Table 2. Data is expressed as EC50 in μg/mL.

[6] = tested on: Klebsiella pneumoniae ATCC 13883; test: Minimum Inhibitory Concentration (MIC), modified microbroth dilution; assay type: cell-based; conditions: for MIC50: Klebsiella pneumoniae, read-out: MIC50 K. Pnuemnoiae
[7] = Cytotoxicity colorimetric (tetrazolium) assay; assay type: cell-based, mouse; conditions: mouse, NIH/3T3 cells (CRL-1658), NIH/3T3 cells; one hour with compound in serum-free media
Description: as §1, §2

[8] = ATCC25922, E. coli (25922), overnight incubation (18 hours)
[9] = ATCC27660, S. aureus (27660), overnight incubation (18 hours)
[10] = ATCC10145, P. aeruginosa (10145), overnight incubation (18 hours)
[11] = ATCC29212, E. faecalis (29212), overnight incubation (18 hours)
[12] = ATCC13883, K. pneumoniae (13883), overnight incubation (18 hours)
[13] = E. coli (25922), overnight incubation (18 hours)
[14] = S. aureus (27660), overnight incubation (18 hours)
[15] = P. aeruginosa (10145), overnight incubation (18 hours)
[16] = E. faecalis (29212), overnight incubation (18 hours)
[17] = K. pneumoniae (13883), overnight incubation (18 hours)

Row | SMILES | EC50 at 1 h [7] [µg/mL] | MIC50 [1, 8] [µg/mL] | MIC50 [2, 9] [µg/mL] | MIC50 [3, 10] [µg/mL] | MIC50 [4, 11] [µg/mL] | MIC50 [6, 12] [µg/mL] | MIC50 E. coli [1, 13] [µg/mL] | MIC50 S. aureus [2, 14] [µg/mL] | MIC50 P. Aeruginosa [3, 15] [µg/mL] | MIC50 E. faecalis [4, 16] [µg/mL] | MIC50 K. Pnuemnoiae [6, 17] [µg/mL] | also measured
1 | NCCCN1c2ccccc2Sc2ccccc21 [Compound 100] | 13 (≈ 50.7 µM) |  |  |  |  |  |  |  |  |  |  | MIC50 ([1]; ATCC25922, 18 h): 100 µg/mL (≈ 390 µM); MIC50 ([2]; ATCC27660, 18 h): 100 µg/mL (≈ 390 µM); MIC50 ([3]; ATCC10145, 18 h): 100 µg/mL (≈ 390 µM); MIC50 ([4]; ATCC29212, 18 h): 100 µg/mL (≈ 390 µM); EC50 at 1 h [5]: 18 µg/mL (≈ 70.2 µM); MIC50 ([6]; ATCC13883, 18 h): 100 µg/mL (≈ 390 µM)
2 | NCCCN1c2ccccc2Sc2ccc(C(F)(F)F)cc21 [Compound 101] | 9 (≈ 27.7 µM) | 25 (≈ 77.1 µM) | 25 (≈ 77.1 µM) | > 100 | 12.5 (≈ 38.5 µM) | 50 (≈ 154 µM) |  |  |  |  |  | 
3 | NCCCN1c2ccccc2Sc2ccc(Cl)cc21 [Compound 103] |  | > 100 | 25 (≈ 86 µM) | > 100 | > 100 | > 100 |  |  |  |  |  | 
4 | NCCCN1c2ccc(N)cc2Sc2ccc(C(F)(F)F)cc21 [Compound 104] |  | 100 (≈ 295 µM) | 100 (≈ 295 µM) | > 100 | > 100 | > 100 |  |  |  |  |  | 
5 | NCCCn1c2ccccc2c2ccccc21 [Compound 105] |  |  |  |  |  |  | >100 | >100 | >100 | >100 | >100 | 
6 | NCCCn1c2cc(Br)ccc2c2ccc(Br)cc21 [Compound 106] | 107 (≈ 280 µM) | 12.5 (≈ 32.7 µM) | 12.5 (≈ 32.7 µM) | 100 (≈ 262 µM) |  | 25 (≈ 65.4 µM) |  |  |  |  |  | EC50 at 1 h [5]: 61.9 µg/mL (≈ 162 µM)
7 | NCCCCn1cc(-c2cccc(-c3cn(CCCCN)nn3)c2)nn1 [Compound 107] |  |  |  |  |  |  | >100 | >100 | >100 | >100 | >100 | 
8 | NCCCn1cc(-c2cccc(-c3cn(CCCN)nn3)c2)nn1 [Compound 108] |  |  |  |  |  |  | >100 | >100 | >100 | >100 | >100 | 
9 | NCCn1cc(-c2cccc(-c3cn(CCN)nn3)c2)nn1 [Compound 109] |  |  |  |  |  |  | >100 | >100 | >100 | >100 | >100 | 
10 | Cl.Cl.NCCCc1cccc(-c2cccc(-c3cccc(CCCN)c3)c2)c1 [Compound 110] |  |  |  |  |  |  | 25 | 25 | 100 | 100 | 100 | 
11 | NCCc1cc(CCN)cc(-c2cccc(-c3cc(CCN)cc(CCN)c3)c2)c1 [Compound 115] | 1130 (≈ 2810 µM) | 25 (≈ 62.1 µM) | 25 (≈ 62.1 µM) | > 50 | > 50 | 50 (≈ 124 µM) |  |  |  |  |  | EC50 at 1 h [5]: > 1160 µg/mL
12 | NC/C=C/c1cc(/C=C/CN)cc(-c2cccc(-c3cc(/C=C/CN)cc(/C=C/CN)c3)c2)c1 [Compound 117] |  | 25 (≈ 55.5 µM) | 12.5 (≈ 27.7 µM) | 50 (≈ 111 µM) | 50 (≈ 111 µM) | > 50 |  |  |  |  |  | 
13 | N=C(N)NC/C=C/c1cc(/C=C/CNC(=N)N)cc(-c2cccc(-c3cc(/C=C/CNC(=N)N)cc(/C=C/CNC(=N)N)c3)c2)c1 [Compound 118] |  | 0.78 (≈ 1.26 µM) | 0.78 (≈ 1.26 µM) | 12.5 (≈ 20.2 µM) | 12.5 (≈ 20.2 µM) | 12.5 (≈ 20.2 µM) |  |  |  |  |  | 
14 | N=C(N)NCCCOc1cc(OCCCNC(=N)N)c(-c2ccc(F)c(F)c2)cc1-c1ccc(F)c(F)c1 [Compound 119] | 113 (≈ 213 µM) |  |  |  |  |  |  |  |  |  |  | 
15 | N=C(N)NCCCOc1cc(OCCCNC(=N)N)c(-c2cc(F)c(F)c(F)c2)cc1-c1cc(F)c(F)c(F)c1 [Compound 120] | 99 (≈ 174 µM) |  |  |  |  |  |  |  |  |  |  | 
